Data as given in patent US20040253193A1, “Oral rinse for treatment for prevention of bacterial and fungal infection” (priority 2001, published 2004).

Experiments:
[1] = assay type: physicochemical
Procedure: Metronidazole (Apo-Metronidazole, Apotex Research Inc.) was prepared by grinding tablets into a powder form and water is added to make a paste. The paste was added to a suitable quantity of nystatin, which was obtained as an aqueous solution from Alimed or PMS PharmaScience (Nilstat™). […] The mouth rinse has a slightly sticky consistency that provides effective contact with the tissues.

[2] = test system: anaerobic gram-negative microorganisms; conditions: short-term systemic use, administered orally in humans; cited from earlier work

- solubility in water [1]: does not dissolve in water
SMILES: Cc1ncc([N+](=O)[O-])n1CCO [metronidazole]
- effect on anaerobic gram-negative microorganisms and periodontal health [2]: sustained reduction of anaerobic gram-negative microorganisms
